Here are results for 1 compound from ChEMBL document CHEMBL4828781, “Novel Heteroaromatic Carboxamide Derivatives as Plasma Kallikrein Inhibitors for Treating Diabetic Complications, Ocular Diseases and Edema-Associated Diseases” (ACS Med Chem Lett, 2021).

For this assay, the target named is Plasma kallikrein (Homo sapiens, UniProt P03952). Briefly: Inhibition of human plasma kallikrein using […] as fluorogenic substrate measured every 2 mins for 12 mins by microplate reader analysis.
Plasma kallikrein, sequence (P03952 20-390 limits assumed): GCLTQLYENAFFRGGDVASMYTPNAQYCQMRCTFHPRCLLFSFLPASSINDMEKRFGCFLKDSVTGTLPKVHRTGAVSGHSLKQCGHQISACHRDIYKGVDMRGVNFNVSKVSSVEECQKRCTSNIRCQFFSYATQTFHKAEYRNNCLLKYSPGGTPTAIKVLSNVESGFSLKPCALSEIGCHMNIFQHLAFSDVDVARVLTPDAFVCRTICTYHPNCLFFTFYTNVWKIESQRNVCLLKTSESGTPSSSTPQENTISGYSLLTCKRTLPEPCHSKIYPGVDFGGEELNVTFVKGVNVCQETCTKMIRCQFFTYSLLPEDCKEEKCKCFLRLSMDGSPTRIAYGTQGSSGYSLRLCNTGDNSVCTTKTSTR
Plasma kallikrein, sequence (P03952 391-638 limits assumed): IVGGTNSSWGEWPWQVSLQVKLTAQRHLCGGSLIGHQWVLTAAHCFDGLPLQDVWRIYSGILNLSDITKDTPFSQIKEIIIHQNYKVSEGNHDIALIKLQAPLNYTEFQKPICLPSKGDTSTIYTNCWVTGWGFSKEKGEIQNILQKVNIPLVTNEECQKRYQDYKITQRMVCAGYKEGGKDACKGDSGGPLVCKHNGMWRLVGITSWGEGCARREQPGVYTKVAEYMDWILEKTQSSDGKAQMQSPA

Consider `Cc1c(Cn2cnc(C(=O)N[C@@H]3CCc4c3ncn4C)c2)ccc(N2CC3CC3C2)c1C#N` (stereo partly specified), for which the midpoint of inhibition, the IC50, lay at 0.3 nM.
